Patent US20260317344A1, “EGFR INHIBITORS FOR TREATING DISEASE” (BLOSSOMHILL THERAPEUTICS, INC., priority 2023, published 2026)

Assays:
[1] = biological target: EGFR (D746-750/C797S) (Homo sapiens, UniProt P00533, C797S/DEL746-750); assay: HotSpot radiometric kinase assay, inhibition of EGFR 746-750/C797S mutant; assay type: biochemical; details: 33P ATP, room temperature, 120 m
Procedure: (§1) Biochemical Assays for inhibition of wild-type and mutant EGFRs
(§2) Briefly, specific kinase/substrate pairs along with required cofactors were prepared in reaction buffer; 20 mM HEPES pH 7.5, 10 mM […], 1 mM EGTA, 0.02% Brij35, 0.02 mg/ml BSA, 0.1 mM Na3VO4, 2 mM DTT, 1% DMSO. Compounds were delivered into the reaction, followed ~20 minutes later by addition of a mixture of ATP (Sigma, St. Louis MO) and ^33P ATP (Perkin Elmer, Waltham MA) to a final concentration of […]. Reactions were carried out at room temperature for 120 m, followed by spotting of the reactions onto P81 ion exchange filter paper (Whatman Inc., Piscataway, NJ). Unbound phosphate was removed by extensive washing of filters in 0.75% phosphoric acid. […] IC50 values and curve fits were obtained using Prism (GraphPad Software).

[2] = test system: HCC827 cells; assay: 5-Day CellTiter Glo (CTG) cell proliferation assay, HCC827; assay type: cell-based; details: Homo sapiens; HCC827 cells (d746-750 EGFR), 5-day CTG proliferation, 120 hours; read-out: HCC827 IC50
Procedure: (§3) 5-Day CellTiter Glo (CTG) Cell Proliferation Assays (PC9, H1975, H827)
(§4) Cell proliferation assays were carried out in NSCLC cells with EGFR activation mutations. Both PC-9 cells and HCC827 cells (purchased from DSMZ) carry a Glu746-Ala750 deletion (d746-750) mutation in exon 19 of the EGFR gene and NCI-H1975 cells carry both L858R activation mutation and T790M gatekeeper mutation in the EGFR gene. One thousand PC-9, NCI-H1975 or HCC827 cells/100 μL per well were seeded in 96-well black plate with transparent bottom and then treated with indicated compounds in a 9-dose dilution series dispensed using TECAN d300e liquid dispenser. Cells were incubated with compounds for 120 hours at 37° C. and 5% CO2. Cell proliferation was measured using CellTiter-Glo 2.0 luciferase-based ATP detection assay (Promega, Madison, WI) at […] per well following the manufacturer's protocol. Plates were then read on a TECAN Sparks multimode microplate reader. Data was analyzed using GraphPad Prism 9 (GraphPad Software, San Diego, CA) to obtain IC50 values.

[3] = biological target: EGFR (D770_N771insNPG) (Homo sapiens, UniProt P00533, INS770NPG); assay: HotSpot radiometric kinase assay, inhibition of EGFR (D770_N771insNPG) mutant; assay type: biochemical; details: 33P ATP, room temperature, 120 m
Chain of EGFR (D770_N771insNPG) (P00533 with tags, fused parts or gaps INS770NPG limits assumed): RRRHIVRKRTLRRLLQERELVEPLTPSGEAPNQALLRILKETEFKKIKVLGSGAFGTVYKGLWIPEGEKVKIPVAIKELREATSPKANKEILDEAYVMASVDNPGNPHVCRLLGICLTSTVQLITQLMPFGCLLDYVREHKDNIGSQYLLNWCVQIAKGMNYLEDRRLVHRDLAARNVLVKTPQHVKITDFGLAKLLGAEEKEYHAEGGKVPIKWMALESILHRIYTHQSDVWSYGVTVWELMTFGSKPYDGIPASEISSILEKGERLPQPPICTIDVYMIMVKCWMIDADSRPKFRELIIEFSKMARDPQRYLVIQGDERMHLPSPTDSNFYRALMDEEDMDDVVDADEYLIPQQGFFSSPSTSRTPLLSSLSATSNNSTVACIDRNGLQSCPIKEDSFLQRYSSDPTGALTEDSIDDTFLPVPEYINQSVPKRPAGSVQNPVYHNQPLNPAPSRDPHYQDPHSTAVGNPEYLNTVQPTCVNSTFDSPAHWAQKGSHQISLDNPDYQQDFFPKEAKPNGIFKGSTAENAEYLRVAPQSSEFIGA
Procedure: as §1, §2

[4] = biological target: EGFR (D746-750) (Homo sapiens, UniProt P00533, DEL746-750); assay: HotSpot radiometric kinase assay, inhibition of EGFR 746-750 mutant; assay type: biochemical; details: 33P ATP, room temperature, 120 m
Chain of EGFR (D746-750) (P00533 with tags, fused parts or gaps DEL746-750): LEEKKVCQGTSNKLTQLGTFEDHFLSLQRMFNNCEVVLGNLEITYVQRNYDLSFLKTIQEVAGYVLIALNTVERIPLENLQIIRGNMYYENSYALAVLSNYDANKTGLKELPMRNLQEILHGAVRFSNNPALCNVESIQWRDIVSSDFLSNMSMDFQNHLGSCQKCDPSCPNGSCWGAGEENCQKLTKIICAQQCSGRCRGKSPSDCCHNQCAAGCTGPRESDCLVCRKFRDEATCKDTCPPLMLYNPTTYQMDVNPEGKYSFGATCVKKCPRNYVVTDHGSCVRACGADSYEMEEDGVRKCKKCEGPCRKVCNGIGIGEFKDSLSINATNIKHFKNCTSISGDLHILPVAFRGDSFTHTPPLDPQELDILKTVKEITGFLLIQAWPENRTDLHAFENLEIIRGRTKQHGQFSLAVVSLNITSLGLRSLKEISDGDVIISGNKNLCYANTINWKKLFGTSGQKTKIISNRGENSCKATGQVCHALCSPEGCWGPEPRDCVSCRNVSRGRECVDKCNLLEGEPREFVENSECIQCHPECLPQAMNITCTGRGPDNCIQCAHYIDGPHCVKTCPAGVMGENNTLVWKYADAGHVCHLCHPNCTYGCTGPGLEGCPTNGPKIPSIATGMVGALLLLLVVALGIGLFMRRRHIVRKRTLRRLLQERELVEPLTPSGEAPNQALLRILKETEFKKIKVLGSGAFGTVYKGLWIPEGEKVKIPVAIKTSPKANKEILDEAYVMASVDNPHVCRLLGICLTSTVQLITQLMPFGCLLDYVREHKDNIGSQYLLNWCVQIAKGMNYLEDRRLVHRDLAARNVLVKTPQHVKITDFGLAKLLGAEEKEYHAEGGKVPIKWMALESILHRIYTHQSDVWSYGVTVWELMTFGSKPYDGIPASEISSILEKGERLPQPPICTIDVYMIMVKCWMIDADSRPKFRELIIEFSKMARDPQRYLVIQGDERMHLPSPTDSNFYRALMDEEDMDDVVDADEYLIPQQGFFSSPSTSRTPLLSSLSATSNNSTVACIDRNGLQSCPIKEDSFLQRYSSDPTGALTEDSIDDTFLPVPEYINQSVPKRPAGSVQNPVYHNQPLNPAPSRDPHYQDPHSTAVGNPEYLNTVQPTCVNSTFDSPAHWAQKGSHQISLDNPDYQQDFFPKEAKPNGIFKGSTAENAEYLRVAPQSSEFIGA
Procedure: as §1, §2

[5] = test system: PC-9 cells; assay: 5-Day CellTiter Glo (CTG) cell proliferation assay, PC-9; assay type: cell-based; details: Homo sapiens; PC-9 cells (d746-750 EGFR), 5-day CTG proliferation, 120 hours; read-out: PC-9 IC50
Procedure: as §3, §4

[6] = biological target: EGFR (L858R/T790M/C797S) (Homo sapiens, UniProt P00533, C797S/L858R/T790M); assay: HotSpot radiometric kinase assay, inhibition of EGFR L858R/T790M/C797S mutant; assay type: biochemical; details: 33P ATP, room temperature, 120 m
Chain of EGFR (L858R/T790M/C797S) (P00533 25-1210 T790M/C797S/L858R): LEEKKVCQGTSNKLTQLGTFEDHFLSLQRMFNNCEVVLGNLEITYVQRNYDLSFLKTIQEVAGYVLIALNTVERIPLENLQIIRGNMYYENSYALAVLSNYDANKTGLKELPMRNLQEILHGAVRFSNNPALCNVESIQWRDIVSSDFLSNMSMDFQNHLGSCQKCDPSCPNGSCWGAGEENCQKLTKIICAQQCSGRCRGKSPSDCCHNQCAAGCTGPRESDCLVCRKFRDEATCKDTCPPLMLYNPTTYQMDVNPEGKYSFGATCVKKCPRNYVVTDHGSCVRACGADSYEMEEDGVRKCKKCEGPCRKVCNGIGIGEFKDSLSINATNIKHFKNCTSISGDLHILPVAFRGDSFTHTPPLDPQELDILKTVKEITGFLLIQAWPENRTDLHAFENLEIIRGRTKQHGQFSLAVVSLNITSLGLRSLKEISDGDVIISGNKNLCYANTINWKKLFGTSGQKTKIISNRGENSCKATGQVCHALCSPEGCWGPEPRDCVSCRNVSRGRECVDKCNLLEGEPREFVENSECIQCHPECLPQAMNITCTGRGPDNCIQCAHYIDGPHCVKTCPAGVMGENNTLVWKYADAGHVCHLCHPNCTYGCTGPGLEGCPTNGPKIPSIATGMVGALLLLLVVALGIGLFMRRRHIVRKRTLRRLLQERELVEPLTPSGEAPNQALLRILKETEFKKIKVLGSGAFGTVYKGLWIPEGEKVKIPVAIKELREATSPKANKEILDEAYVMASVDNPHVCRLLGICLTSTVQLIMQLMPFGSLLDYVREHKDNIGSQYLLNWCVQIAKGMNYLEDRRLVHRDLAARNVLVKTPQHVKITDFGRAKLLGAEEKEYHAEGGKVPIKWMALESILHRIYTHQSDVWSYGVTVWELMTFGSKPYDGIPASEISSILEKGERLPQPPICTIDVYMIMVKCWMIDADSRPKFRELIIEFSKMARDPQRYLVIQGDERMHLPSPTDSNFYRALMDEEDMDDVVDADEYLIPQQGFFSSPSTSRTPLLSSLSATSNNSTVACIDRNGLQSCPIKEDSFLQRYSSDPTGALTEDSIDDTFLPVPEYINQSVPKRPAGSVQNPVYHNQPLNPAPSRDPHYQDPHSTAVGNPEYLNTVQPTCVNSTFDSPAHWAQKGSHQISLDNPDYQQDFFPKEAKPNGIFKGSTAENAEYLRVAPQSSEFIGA
Procedure: as §1, §2

[7] = test system: NCI-H1975 cells; assay: 5-Day CellTiter Glo (CTG) cell proliferation assay, NCI-H1975; assay type: cell-based; details: Homo sapiens; NCI-H1975 cells (L858R/T790M EGFR), 5-day CTG proliferation, 120 hours; read-out: H1975 IC50
Procedure: as §3, §4

[8] = biological target: T1, pEGFR, PC-9 cells (d746-750 EGFR) (Homo sapiens, UniProt P00533, DEL746-750); assay: Cellular EGFR phosphorylation assay (LANCE Ultra TR-FRET) in PC-9 cells; assay type: cell-based; details: 4 hours at 37° C., read-out: PC-9 pEGFR IC50
T1 construct: pEGFR (Tyr1068) TR-FRET
T1 sequence (P00533 with tags, fused parts or gaps DEL746-750): as the sequence (P00533 with tags, fused parts or gaps DEL746-750) above
Procedure: (§5) Cellular EGFR Phosphorylation Assays
(§6) EGFR phosphorylation assays were conducted in NSCLC cells with EGFR activation mutations. PC-9 cells (purchased from Aldrich-Sigma) carry a Glu746-Ala750 deletion (d746-750) mutation in exon 19 of the EGFR gene and NCI-H1975 cells (purchased from ATCC) carry both L858R activation mutation and T790M gatekeeper mutation in the EGFR gene. A431 cells (purchased from ATCC) with amplification of wildtype EGFR, derived from epidermoid carcinoma, were used to measure the activity against wildtype EGFR. All cells were seeded in 96-well plates. For PC-9 and NCI-H1975 cells, 50 thousand cells were seeded per well. For A431 cells, 30 thousand cells were seeded per well. The next day, cells were exposed to compound for 4 hours at 37° C. and 5% CO2. Compounds were diluted in DMSO and added to cells in a 9-dose, 3-fold dilution, titration curve using TECAN d300e liquid dispenser. For A431 cells, 40 ng/mL of EGF was added to the media for the final 10 minutes of incubation. EGFR phosphorylation was measured using phospho-EGFR (Try1068) LANCE Ultra TR-FRET Detection Kit (TRF4015M) from PerkinElmer according to manufacturer's instructions. In brief, cells were lysed with 40 μL of lysis buffer plus 1× Halt protease and phosphatase inhibitor cocktail (Thermo 78441) and by incubation at room temperature for 1 h on a microplate shaker (350 rpm). 15 μ L of cell lysate was transferred to 384-well white plate and 5 μL of Europium- and ULight-labeled antibodies diluted in 1× detection buffer was added to each well. After 4-6 hours of incubation at room temperature, plates were then read on a TECAN Sparks multimode microplate reader. Data was analyzed using GraphPad Prism 9 (GraphPad Software, San Diego, CA) to obtain IC50 values.

[9] = biological target: T2, pEGFR, A431 cells (wildtype EGFR) (Homo sapiens, UniProt P00533); assay: Cellular EGFR phosphorylation assay (LANCE Ultra TR-FRET) in A431 cells; assay type: cell-based; details: 4 hours at 37° C., 40 ng/mL EGF for the final 10 minutes, read-out: A431 pEGFR IC50
T2 construct: pEGFR (Tyr1068) TR-FRET
Procedure: as §5, §6

[10] = biological target: T3, pEGFR, NCI-H1975 cells (L858R/T790M EGFR) (Homo sapiens, UniProt P00533, L858R/T790M); assay: Cellular EGFR phosphorylation assay (LANCE Ultra TR-FRET) in NCI-H1975 cells; assay type: cell-based; details: 4 hours at 37° C., read-out: H1975 pEGFR IC50
T3 construct: pEGFR (Tyr1068) TR-FRET
Procedure: as §5, §6

Structure (SMILES) | IC50 [1] | IC50 [2] | IC50 [3] | IC50 [4] | IC50 [5] | IC50 [6] | IC50 [7] | IC50 [8] | IC50 [9] | IC50 [10]
CCN1Cc2c(c(OCC#N)nn2[C@@H](C)CO)/C=C/c2n[nH]c3cnc(cc23)-c2c(C)nn(C)c2O[C@H](C)C1 [Ex. 58, {[(10R,17E)-12-ethyl-14-[(2S)-1-hydroxypropan-2-yl]-6,8,10-trimethyl-2,10,11,12,13,14-hexahydro-8H-5,3-(azenometheno)tripyrazolo[3,4-f:3′,4′-j:4″,3″-n][1,4]oxazacyclopentadecin-16-yl]oxy}acetonitrile] | 1.38 nM | 0.75 nM | 0.72 nM | 0.55 nM | 2.44 nM | 1.01 nM | 14.7 nM | 1.11 nM | 21.5 nM | 2.34 nM
CCc1nn(CCO)c2c1/C=C/c1n[nH]c3cnc(cc13)-c1c(C)nn(C)c1O[C@@H](C)CN(C)C2 [Ex. 60] | 1.72 nM | 1.77 nM | 0.78 nM | 0.54 nM | 5.05 nM | 0.86 nM | 57.5 nM | 2.39 nM | 29 nM | 2.49 nM
CCc1nn([C@@H](C)CO)c2c1/C=C/c1n[nH]c3cnc(cc13)-c1c(C)nn(C)c1O[C@@H](C)CN(C)C2 [Ex. 61, (2S)-2-[(10S,17E)-16-ethyl-6,8,10,12-tetramethyl-2,8,10,11,12,13-hexahydro-14H-5,3-(azenometheno)tripyrazolo[3,4-f:3′,4′-j:4″,3″-n][1,4]oxazacyclopentadecin-14-yl]propan-1-ol] | 1.05 nM | 0.66 nM | 0.7 nM | 0.43 nM | 3.55 nM | 0.91 nM | 74.7 nM | 1.68 nM | 21 nM | 2.05 nM
CCc1nn(CCO)c2c1/C=C/c1n[nH]c3cnc(cc13)-c1c(C)nn(C)c1O[C@@H](C)CN(CC)C2 [Ex. 62, 2-[(10S,17E)-12,16-diethyl-6,8,10-trimethyl-2,8,10,11,12,13-hexahydro-14H-5,3-(azenometheno)tripyrazolo[3,4-f:3′,4′-j:4″,3″-n][1,4]oxazacyclopentadecin-14-yl]ethan-1-ol] | 1.58 nM | 0.44 nM | 0.42 nM | 0.42 nM | 1.08 nM | 0.74 nM | 16.9 nM | 1.13 nM | 13.2 nM | 1.54 nM
CCN1CCOc2c(c(C)nn2C)-c2cc3c(n[nH]c3cn2)/C=C/c2c(OCC#N)nn([C@@H](C)CO)c2C1 [Ex. 66, {[(17E)-12-ethyl-4-[(2S)-1-hydroxypropan-2-yl]-6,8-dimethyl-2,10,11,12,13,14-hexahydro-8H-5,3-(azenometheno)tripyrazolo[3,4-f:3′,4′-j:4″,3″-n][1,4]oxazacyclopentadecin-16-yl]oxy}acetonitrile] | 1.04 nM |  | 0.42 nM | 0.36 nM |  | 0.54 nM |  |  |  | 

Compounds with a lower IC50 [1], results first:

IC50 [1] | IC50 [2] | IC50 [3] | IC50 [4] | IC50 [5] | IC50 [6] | IC50 [7] | IC50 [8] | IC50 [9] | IC50 [10] | Structure (SMILES)
0.31 nM | 0.39 nM | 0.11 nM | 0.12 nM | 4.22 nM | 0.28 nM | 1.75 nM |  |  |  | CCOc1nn(CCO)c2c1/C=C/c1n[nH]c3cnc(cc13)-c1cnn(C)c1O[C@@H](C)CN(CC)C2 [Ex. 34, 2-[(10S,17E)-16-ethoxy-12-ethyl-8,10-dimethyl-2,8,10,11,12,13-hexahydro-14H-5,3-(azenometheno)tripyrazolo[3,4-f:3′,4′-j:4″,3″-n][1,4]oxazacyclopentadecin-14-yl]ethan-1-ol]
0.34 nM |  | 0.19 nM | 0.12 nM |  | 0.21 nM |  |  |  |  | Cc1nn(C)c2c1-c1cc3c(n[nH]c3cn1)/C=C/c1c(OCC#N)nn(CCO)c1CN(C)[C@H](C)CO2 [Ex. 49, {[(11R,17E)-14-(2-hydroxyethyl)-6,8,11,12-tetramethyl-2,10,11,12,13,14-hexahydro-8H-5,3-(azenometheno)tripyrazolo[3,4-f:3′,4′-j:4″,3″-n][1,4]oxazacyclopentadecin-16-yl]oxy}acetonitrile]
0.83 nM |  | 1.11 nM | 0.31 nM |  | 0.37 nM |  |  |  |  | Cc1nn(CCO)c2c1/C=C/c1n[nH]c3c(C)nc(cc13)-c1cnn(C)c1O[C@@H](C)CN(C)C2 [Ex. 51, 2-[(10S,17E)-8,10,12,16,20-pentamethyl-2,8,10,11,12,13-hexahydro-14H-5,3-(azenometheno)tripyrazolo[3,4-f:3′,4′-j:4″,3″-n][1,4]oxazacyclopentadecin-14-yl]ethan-1-ol]
0.71 nM |  | 0.25 nM | 0.21 nM |  | 0.46 nM |  |  |  |  | Cc1nn(C)c2c1-c1cc3c(n[nH]c3c(C)n1)/C=C/c1c(OCC#N)nn([C@@H](C)CO)c1CN(C)C[C@H](C)O2 [Ex. 52]
0.72 nM |  | 1.38 nM | 0.25 nM |  | 0.53 nM |  |  |  |  | CCc1nn(CCO)c2c1/C=C/c1n[nH]c3cnc(cc13)-c1c(C)nn(C)c1O[C@H](C)CN(CC)C2 [Ex. 55, 2-[(10R,17E)-12,16-diethyl-6,8,10-trimethyl-2,8,10,11,12,13-hexahydro-14H-5,3-(azenometheno)tripyrazolo[3,4-f:3′,4′-j:4″,3″-n][1,4]oxazacyclopentadecin-14-yl]ethan-1-ol]
0.69 nM |  | 0.41 nM | 0.16 nM |  | 0.31 nM |  |  |  |  | Cc1nn(C)c2c1-c1cc3c(n[nH]c3cn1)/C=C/c1c(OCC#N)nn([C@@H](C)CO)c1CN(C)CCO2 [Ex. 70, {[(17E)-14-[(2S)-1-hydroxypropan-2-yl]-6,8,12-trimethyl-2,10,11,12,13,14-hexahydro-8H-5,3-(azenometheno)tripyrazolo[3,4-f:3′,4′-j:4″,3″-n][1,4]oxazacyclopentadecin-16-yl]oxy}acetonitrile]
